Measurements from the supplement of paper PMC9663587.

What was measured:
Assay in all cases: area over the GR curve, 72 h; higher = more effect;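 further: Dye Drop or Deep Dye Drop imaging of viable cells in 384-well plates (Hoechst nuclei, LIVE/DEAD dye), nine half-log doses, GR normalized to DMSO controls and time-zero plates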
T47D = system: T47D
BT474 = system: BT474
SUM149 = system: SUM149
ZR7530 = system: ZR7530
PDXHCI002 = system: PDXHCI002
MDAMB415 = system: MDAMB415
AU565 = system: AU565
MDAMB468 = system: MDAMB468
MDAMB361 = system: MDAMB361
MCF12A = system: MCF12A
SUM52PE = system: SUM52PE
MCF10A = system: MCF10A
SUM190PT = system: SUM190PT

SMILES | area over the GR curve (T47D) [GR] | area over the GR curve (BT474) [GR] | area over the GR curve (SUM149) [GR] | area over the GR curve (ZR7530) [GR] | area over the GR curve (PDXHCI002) [GR] | area over the GR curve (MDAMB415) [GR] | area over the GR curve (AU565) [GR] | area over the GR curve (MDAMB468) [GR] | area over the GR curve (MDAMB361) [GR] | area over the GR curve (MCF12A) [GR] | area over the GR curve (SUM52PE) [GR] | area over the GR curve (MCF10A) [GR] | area over the GR curve (SUM190PT) [GR] | area over the GR curve (T47D; main component drawn) [GR] | area over the GR curve (SUM149; main component drawn) [GR] | area over the GR curve (PDXHCI002; main component drawn) [GR] | area over the GR curve (MDAMB468; main component drawn) [GR] | area over the GR curve (MDAMB361; main component drawn) [GR] | area over the GR curve (MCF10A; main component drawn) [GR]
C[C@@H]1COCCN1c1cc(C2([S@](C)(=N)=O)CC2)nc(-c2cc[nH]c3nccc2-3)n1 [AZD6738] (max 10 µM) | -0.205 | 0.0277 | 0.117 | -0.0333 | 0.0278 | 0.0148 | 0.0383 | 0.0381 | 0.161 | 0.192 | 0.0121 | 0.0334 | 0.124 |  |  |  |  |  | 
NC(=O)Nc1cc(-c2cccc(F)c2)sc1C(=O)N[C@H]1CCCNC1 [AZD7762] (max 10 µM) | -0.0211 | 0.0464 | 0.657 | 0.199 | 0.694 | 0.398 | 0.338 | 0.487 | 1.05 | 0.521 | 0.634 | 0.225 | 0.57 |  |  |  |  |  | 
Cc1nc(NC(=O)N2CCC[C@H]2C(N)=O)sc1-c1ccnc(C(C)(C)C(F)(F)F)c1 [Alpelisib/BYL719] (max 10 µM) | 0.455 | 0.468 | 0.0367 | 0.351 | 0.063 | 0.0453 | 0.472 | 0.0301 | 0.531 | 0.0144 | 0.19 | 0.113 | -0.103 |  |  |  |  |  | 
CN(C)C/C=C/C(=O)Nc1ccc(O[C@@H]2CCC[C@@H](Nc3ncc(Cl)c(-c4c[nH]c5ccccc45)n3)C2)cc1 [BSJ-01-175] (max 10 µM) | 0.537 | 0.826 | 0.747 | 0.989 | 0.906 | 0.676 | 1.06 | 0.892 | 1.32 | 0.146 | 0.618 | 0.3 | 1.16 |  |  |  |  |  | 
CC(=O)c1c(C)c2cnc(Nc3ccc(N4CCN(CCOCCOCCOCCNC(=O)COc5cccc6c5C(=O)N(C5CCC(=O)NC5=O)C6=O)CC4)cn3)nc2n(C2CCCC2)c1=O (configuration not stated) [BSJ-03-123] (max 10 µM) | 0.746 | 0.464 | 0.293 | 0.387 | 0.246 | 0.332 | 0.34 | 0.265 | 0.439 | 0.136 | 0.219 | 0.323 | 0.568 |  |  |  |  |  | 
CC(C)Nc1cc(-c2c[nH]c(C(=O)N[C@H](CO)c3cccc(Cl)c3)c2)c(Cl)cn1 [BVD523] (max 10 µM) | 0.185 | -0.0171 | 0.233 | 0.08 | 0.168 | 0.121 | 0.061 | 0.267 | 0.193 | 0.111 | 0.129 | 0.311 | 0.218 |  |  |  |  |  | 
Cc1c(N)nc([C@H](CC(N)=O)NC[C@H](N)C(N)=O)nc1C(=O)N[C@H](C(=O)N[C@H](C)[C@@H](O)[C@H](C)C(=O)N[C@H](C(=O)NCCc1nc(-c2nc(C(=O)NCCC[S+](C)C)cs2)cs1)[C@@H](C)O)[C@@H](OC1OC(CO)C(O)C(O)C1OC1OC(CO)C(O)C(OC(N)=O)C1O)c1cnc[nH]1 (some centres not stated) [Bleomycin] (max 10 µM) |  |  |  |  |  |  |  |  |  |  |  |  |  | 0.462 | 0.683 | 0.272 | 0.325 | 0.361 | 0.449
Nc1cc(C(F)(F)F)c(-c2cc(N3CCOCC3)nc(N3CCOCC3)n2)cn1 [Buparlisib/NVP-BKM120] (max 10 µM) | 0.482 | 0.53 | 0.248 | 0.371 | 0.229 | 0.35 | 0.662 | 0.357 | 0.611 | 0.168 | 0.338 | 0.249 | 0.253 |  |  |  |  |  | 
COc1cc2nccc(Oc3ccc(NC(=O)C4(C(=O)Nc5ccc(F)cc5)CC4)cc3)c2cc1OC [Cabozantinib] (max 10 µM) | 0.0578 | -0.109 | 0.0344 | 0.174 | 0.0362 | -0.0499 | -0.0067 | 0.0415 | 0.0628 | -0.0141 | 0.249 | -0.0114 | 0.138 |  |  |  |  |  | 
COc1cc2c(Oc3ccc4[nH]c(C)cc4c3F)ncnc2cc1OCCCN1CCCC1 [Cediranib/AZD2171] (max 10 µM) | 0.122 | -0.139 | 0.0456 | 0.0237 | 0.255 | 0.246 | -0.0924 | 0.165 | 0.288 | -0.0002 | 0.379 | 0.031 | -0.0464 |  |  |  |  |  | 
Cc1cc(Nc2ncc(Cl)c(Nc3ccccc3S(=O)(=O)C(C)C)n2)c(OC(C)C)cc1C1CCNCC1 [Ceritinib/LDK378] (max 10 µM) | 0.312 | -0.229 | 0.249 | 0.0423 | 0.503 | 0.085 | 0.0682 | 0.405 | 0.546 | 0.0596 | 0.0274 | 0.184 | 0.242 |  |  |  |  |  | 
N.N.[Cl][Pt][Cl] [Cisplatin] (max 10 µM) | 0.214 |  | 0.355 |  | 0.201 |  |  | 0.287 | 0.177 |  |  | 0.0952 |  |  |  |  |  |  | 
Cc1nc(Nc2ncc(C(=O)Nc3c(C)cccc3Cl)s2)cc(N2CCN(CCO)CC2)n1 [Dasatinib] (max 10 µM) | 0.193 | 0.695 | 0.52 | 0.426 | 0.376 | 0.272 | 0.155 | 0.143 | 0.351 | 0.42 | 0.451 | 0.339 | 0.32 |  |  |  |  |  | 
COc1cccc2c1C(=O)c1c(O)c3c(c(O)c1C2=O)C[C@@](O)(C(=O)CO)C[C@@H]3O[C@H]1C[C@H](N)[C@H](O)[C@H](C)O1 [Doxorubicin] (max 3.162 µM) | 0.919 | 0.578 | 0.754 | 0.552 | 0.969 | 0.834 | 0.604 | 0.912 | 0.912 | 0.601 | 0.321 | 0.655 | 0.403 |  |  |  |  |  | 
CO[C@H]1C[C@@H]2CC[C@@H](C)[C@@](O)(O2)C(=O)C(=O)N2CCCC[C@H]2C(=O)O[C@H]([C@H](C)C[C@@H]2CC[C@@H](OCCO)[C@H](OC)C2)CC(=O)[C@H](C)/C=C(\C)[C@@H](O)[C@@H](OC)C(=O)[C@H](C)C[C@H](C)/C=C/C=C/C=C/1C [Everolimus] (max 10 µM) | 0.616 | 0.898 | 0.201 | 0.598 | -0.0896 | 0.807 | 0.553 | 0.429 | 0.85 | 0.273 | 0.408 | 0.113 | 0.571 |  |  |  |  |  | 
CC[C@@]1(O)C(=O)OCc2c1cc1n(c2=O)Cc2cc3c(CN(C)C)c(O)ccc3nc2-1 [Topotecan] (max 10 µM) | 0.959 |  | 0.941 |  | 1.02 |  |  | 1.07 | 1.13 |  |  | 0.765 |  |  |  |  |  |  | 
